Experimental data as given in patent US11841369B2, “Method for improving quality of therapeutic cell through real-time glutathione measurement” (CELL2IN, INC., priority 2017, dated 2023).

Key:
hUC-MSCs [1] = assay: Mitochondrial GSH (mGSH) distribution after RSL3, MitoFreSH-Tracer, flow cytometry and confocal imaging; format: cell-based, human
Description: After the cultured human umbilical cord-derived mesenchymal stem cells (hUC-MSCs) at passage 4, 7 or 15 were treated with various concentrations of RSL3 and stained with MitoFreSH, the distribution pattern of mitochondrial GSH (mGSH) in the cells was confirmed by histograms using flow cytometry and confocal imaging.
hUC-MSCs at passage 4, 7 or 15 were prepared, seeded at 70000 cells/well in a 6-well cell culture plate, and cultured at 37° C. for 24 hours. The medium used in the culture was prepared by adding 10% fetal bovine serum and 1× penicillin-streptomycin to α-MEM. […] The cells detached from the plate were transferred to an FACS tube and stored on ice, and a fluorescence level was measured using a flow cytometer.
hUC-MSCs at passage 4, 7 or 15 were prepared, seeded at 7000 cells/100 μl per well in a 96-well cell culture plate, and cultured at 37° C. for 24 hours. […] To remove MitoFreSH-Tracer from the medium before measurement, the medium was exchanged with fresh 10 mM HEPES-containing HBSS, and fluorescence images were measured using a confocal imaging system, Operetta.
A F510/F580 ratio referring to a GSH mean value in cells was calculated by measuring fluorescence values of F510 (fluorescence value when MitoFreSH-Tracer was bound with SH) and F580 (fluorescence value of MitoFreSH-Tracer, which was not bound with SH) in cells and dividing the F510 value by the F580 value. […]

human dermal fibroblasts = assay: mGSH distribution after RSL3 in human dermal fibroblasts, confocal imaging; format: cell-based; details: as the subculture continued
Description: As described in the experiment for MSCs, human dermal fibroblasts subcultured several times were treated with RSL3 and the cells were stained with MitoFreSH-Tracer, and a ratio between cells maintaining mGSH and cells not maintaining mGSH was represented as a percentage through confocal imaging.

hUC-MSCs [2] = assay: CD146 surface expression in mGSH^High and mGSH^Low cells after RSL3, flow cytometry; format: cell-based, human; details: P4 hUC-MSC, compared with mGSH level-maintaining group
Text: To confirm whether the stem cell function of cells in which an mGSH level decreased is deteriorated under lipid oxidative stress caused by RSL3 treatment, an expression level of CD146, which is a cell surface protein known to be highly expressed in stem cells of high quality according to conventional literature, was confirmed through flow cytometry.
The cells were stained by the same method as a method of measuring a mitochondria GSH level through the flow cytometry as described above, and detached from the plate using trypsin. The detached cells were treated with an antibody for flow cytometry with respect to CD146 to which a fluorescent material BUV395 was bound at 4° C. for 30 minutes, and washed with PBS. Using a flow cytometer, F510 and F580 fluorescence values for measuring a GSH level and a BUV395 fluorescence value for measuring CD146 expression were measured. Afterward, based on the point at which the histogram showing the F510/F580 distribution was divided into two peaks, the cells were divided into GSH^High cells (right peak) and GSH^Low cells (left peak) using FlowJo software, and a CD146-positive ratio of the corresponding cells is represented as a percentage (%).

hUC-MSCs [3] = assay: CFU-F assay of hUC-MSCs; format: cell-based, human; details: ferrostatin-1 0.2, 1, 2, 4 μM or liproxstatin-1 0.1, 0.5, 1, 2 μM, 24 hours
Description: The inventors observed an effect of the material on stem cells by treating each stem cells with a material for enhancing a glutathione evaluation parameter. When hUC-MSCs were subcultured in a L-AA2G-containing medium, CFU-F, migration capacity, and an anti-inflammatory effect were observed. A CFU-F assay (n=3) was performed by treating hUC-MSCs with 125 or 250 μg/mL of AA2G for three days. As shown in FIGS. 16A and 16B, it was confirmed that, when AA2G was treated, CFU-F increased. In addition, as hUC-MSCs were treated with 125 or 250 μg/mL of AA2G for three days, PDGF-AA-induced migration capacity (n=3) was analyzed. As shown in FIGS. 17A and 17B, it was confirmed that the migration capacity was increased by AA2G treatment. In addition, the reduction in T cell proliferation, a reduction in T cell differentiation, and the promotion of Treg cell differentiation were observed by treating hUC-MSCs with 125 or 250 μg/mL of AA2G for three days. […] Meanwhile, hUC-MSCs were cultured with a glutathione precursor such as γ-glutamyl cysteine (GGC, 0.1, 0.25, and 0.5 mM). A CFU-F assay (n=3) was performed by treating hUC-MSCs with each concentration of GGC for 2 hours. […] In addition, SDF1α and PDGF-AA-induced migration capacities (n=3) were analyzed for hUC-MSCs without treatment with GGC, and SDF1α- and PDGF-AA-induced migration abilities (n=3) were analyzed by treating hUC-MSCs with the increasing concentrations of GGC. STI571 was used as a PDGFR kinase inhibitor. As shown in FIGS. 20A to 20C, it was confirmed that, according to an increase in GGC treatment concentration, SDF1α- and PDGF-AA-induced migration capacities were enhanced. A CFU-F assay (n=3) was performed by treating hUC-MSCs with 0.2, 1, 2, and 4 μM ferrostatin-1 and 0.1, 0.5, 1, and 2 μM liproxstatin-1 for 24 hours.

T cells = assay: Anti-inflammatory effect of treated hUC-MSCs: T cell proliferation, T cell differentiation, Treg cell differentiation; format: cell-based
Description: The inventors observed an effect of the material on stem cells by treating each stem cells with a material for enhancing a glutathione evaluation parameter. When hUC-MSCs were subcultured in a L-AA2G-containing medium, CFU-F, migration capacity, and an anti-inflammatory effect were observed. A CFU-F assay (n=3) was performed by treating hUC-MSCs with 125 or 250 μg/mL of AA2G for three days. As shown in FIGS. 16A and 16B, it was confirmed that, when AA2G was treated, CFU-F increased. In addition, as hUC-MSCs were treated with 125 or 250 μg/mL of AA2G for three days, PDGF-AA-induced migration capacity (n=3) was analyzed. As shown in FIGS. 17A and 17B, it was confirmed that the migration capacity was increased by AA2G treatment. In addition, the reduction in T cell proliferation, a reduction in T cell differentiation, and the promotion of Treg cell differentiation were observed by treating hUC-MSCs with 125 or 250 μg/mL of AA2G for three days.
In addition, hUC-MSCs were cultured with ferrostatin-1 (0.2, 1, 2 and 4 μM) and liproxstatin-1 (0.1, 0.5, 1 and 2 μM), which control a glutathione level in cells by inhibiting lipid oxidation. […] Meanwhile, the hUC-MSCs were treated with 1 μM ferrostatin-1 for 24 hours, 0.2 mM GGC for 2 hours, and 2 mM GSH-EE for 2 hours. As a result, the reduction in T cell proliferation ability and the reduction in T cell differentiation capacity were observed, and promotion of Treg cell differentiation was observed.

[4] = hUC-MSCs treated with 1 μM ferrostatin-1 24 h, 0.2 mM GGC 2 h or 2 mM GSH-EE 2 h

| Compound | mGSH levels (hUC-MSCs [1]; hUC-MSCs passage 4, 7 or 15, RSL3 0.1/0.5/1 μM, dependent on RSL3 concentration and passage number) | proportion of cells in which mGSH decreases by treatment with RSL3 (human dermal fibroblasts) | lowering of CD146-positive ratio in group in which mGSH level is lowered by RSL3 (hUC-MSCs [2]) | CFU-F (hUC-MSCs [3]) | anti-inflammatory effect of the hUC-MSCs (T cells; ferrostatin-1 or liproxstatin-1 treatment (FIGS. 27, 28A to 28C)) | T cell differentiation capacity (T cells; [4]) | T cell proliferation ability (T cells; [4]) | Treg cell differentiation (T cells; [4]) | effect of RSL3 on mGSH upon Ferrostatin-1 treatment (hUC-MSCs [1]; hUC-MSCs treated with RSL3 (FIG. 33)) |
| --- | --- | --- | --- | --- | --- | --- | --- | --- | --- |
| COC(=O)c1ccc([C@@H]2c3[nH]c4ccccc4c3C[C@@H](C(=O)OC)N2C(=O)CCl)cc1 [RSL3, 1S,3R-RAS-selective lethal 3] | reduced | increased | approximately 25% | – | – | – | – | – | – |
| CCOC(=O)c1ccc(NC2CCCCC2)c(N)c1 [ferrostatin-1] | – | – | – | improved | did not alter | reduction | reduction | promotion | disappeared |
